Measurements reported in patent publication US20230058623A1, “NOVEL HETEROARYL-TRIAZOLE COMPOUNDS AS PESTICIDES” (Bayer Aktiengesellschaft, priority 2019, published 2023).

What was measured:
Format in all cases: in vivo
[1] = tested on: adult mosquitoes Aedes aegypti strain MONHEIM; assay: Aedes aegypti test (AEDSAE surface treatment & contact assay); conditions: 24 hours after contact, read-out: efficacy (mortality); for mortality at 20 mg/m2: surface concentration 20 mg/m^2, exposure 30 minutes; for mortality at 4 mg/m2: surface concentration 4 mg/m^2, exposure 30 minutes
Procedure, shortened: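 Compound in acetone (2 mg/ml) with 2000 ppm RME dried onto glazed tile; adults exposed to the treated surface for 30 min. Percent mortality scored 24 h after contact.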

[2] = tested on: green peach aphid (Myzus persicae); assay: Myzus persicae spray test; conditions: foliar, 120 h, application rate 100 g/ha, after 5 days, Chinese cabbage leaf disks, read-out: activity (mortality)
Procedure, shortened: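 Chinese cabbage leaf disks infested with all aphid instars were sprayed with compound diluted in water containing emulsifier (1000 ppm). Mortality (%) was scored after 5 days, 100% meaning all aphids killed.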

[3] = tested on: Rhipicephalus (Boophilus) microplus larvae (strain Parkhurst, resistant against synthetic pyrethroids); assay: Rhipicephalus (Boophilus) microplus in-vitro contact test, larval cattle tick; conditions: after 48 hours, read-out: activity (efficacy: larvae dead or moribund); for pest or weed control at 1 µg/cm2, 100 g/ha: application rate 1 μg/cm^2 (=100 g/ha); for pest or weed control at 5 µg/cm2, 500 g/ha: application rate 5 μg/cm^2 (=500 g/ha)
Procedure, shortened: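 Acetone solutions were coated onto glass tube walls, giving 5 μg/cm^2 at 900 ppm. Once dry, 20–50 pyrethroid-resistant Parkhurst larvae were added per tube and held 48 h at 27 °C and 85% RH. Efficacy was scored by negative geotaxis as the percentage of dead or moribund larvae.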

[4] = tested on: larvae of the banded cucumber beetle (Diabrotica balteata); assay: Diabrotica balteata spray test; conditions: 168 h, application rate 100 g/ha (=32 μg/well), after 7 days, wheat seeds, read-out: activity (efficacy: seedlings grown)
Procedure, shortened: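 Wheat seeds germinated 1 day on agar were sprayed with compound diluted in water with 1000 ppm emulsifier, then infested with 10-20 Diabrotica balteata larvae. Efficacy in % scored after 7 days: 100% = seedlings grown as untreated, uninfected control; 0% = no seedlings grown.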

[5] = tested on: brown planthopper (Nilaparvata lugens); assay: Nilaparvata lugens spray test; conditions: 96 h, after 4 days, rice plants; for mortality at 100 g/ha: application rate 100 g/ha; for mortality at 500 g/ha: application rate 500 g/ha
Procedure, shortened: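 Rice plants sprayed with compound diluted in water containing 1000 ppm emulsifier, then infested with brown planthopper. Mortality (%) scored after 4 days, 100% meaning all insects killed.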

[6] = tested on: cattle ticks (Rhipicephalus microplus) strain Parkhurst, SP-resistant; assay: Rhipicephalus (Boophilus) microplus dip test; conditions: 168 h, application rate 100 ppm, egg deposition after 7 days, read-out: activity (efficacy: infertile eggs)
Description: Rhipicephalus (Boophilus) microplus—Dip Test
Test animal: cattle ticks (Rhipicephalus microplus) strain Parkhurst, SP-resistant
Solvent: dimethyl sulfoxide
To produce a suitable preparation of active compound, 10 mg of active compound are dissolved in 0.5 mL solvent, and the concentrate is diluted with water to the desired concentration.
This compound solution is pipetted into tubes. 8-10 engorged, adult, female cattle ticks (Rhipicephalus microplus) are placed in perforated tubes. These tubes are immersed in the aqueous compound solution until the ticks are completely moistened. After the liquid has drained off, the ticks are transferred to a filter paper in a plastic tray and stored in a climate chamber.
After 7 days egg deposition of fertile eggs is monitored. Eggs where fertility is not visible are stored in a climate chamber till hatching after about 42 days. An efficacy of 100% means all eggs are infertile; 0% means all eggs are fertile.

[7] = tested on: adult mosquitoes Anopheles funestus strain FUMOZ-R; assay: Anopheles funestus test (ANPHFU surface treatment & contact assay); conditions: 24 hours after contact, read-out: efficacy (mortality); for mortality at 20 mg/m2: surface concentration 20 mg/m^2, exposure 30 minutes; for mortality at 4 mg/m2: surface concentration 4 mg/m^2, exposure 30 minutes
Description: Anopheles funestus Test (ANPHFU Surface Treatment & Contact Assay)
(§1) Solvent: Aceton+2000 ppm rapeseed oil methyl ester (RME)
In order to produce a sufficient, active ingredient containing solution it is necessary to solve the test compound in the solvent-mix (acetone at 2 mg/ml/RME 2000 ppm). This solution is pipetted onto a glazed tile and after evaporation of the acetone, adult mosquitoes of the species Anopheles funestus strain FUMOZ-R (Hunt et al., Med. Vet. Entomol. 2005 September; 19(3): 271-275) are placed onto the dried surface. The exposure time is 30 minutes.
(§2) Mortality in percent (%) is determined 24 hours after contact of the insects to the treated surface. 100% mortality means that all tested insects are dead, whereas 0% means that no insect died.

[8] = tested on: adult mosquitoes Culex quinquefasciatus strain P00; assay: Culex quinquefasciatus test (CULXFA surface treatment & contact assay); conditions: 24 hours after contact, read-out: efficacy (mortality); for mortality at 20 mg/m2: surface concentration 20 mg/m^2, exposure 30 minutes; for mortality at 4 mg/m2: surface concentration 4 mg/m^2, exposure 30 minutes
Description: Culex quinquefasciatus Test (CULXFA Surface Treatment & Contact Assay)
as §1
In order to produce a sufficient, active ingredient containing solution it is necessary to solve the test compound in the solvent-mix (acetone at 2 mg/ml/RME 2 000 ppm). This solution is pipetted onto a glazed tile and after evaporation of the acetone, adult mosquitoes of the species Culex quinquefasciatus strain P00 are placed onto the dried surface. The exposure time is 30 minutes.
as §2

| Compound | mortality at 20 mg/m2 [1] [%] | mortality at 100 g/ha [2] [%] | pest or weed control at 1 µg/cm2, 100 g/ha [3] [%] | pest or weed control at 5 µg/cm2, 500 g/ha [3] [%] | pest or weed control at 32 µg/disc, 100 g/ha [4] [%] | mortality at 100 g/ha [5] [%] | pest or weed control at 100 ppm [6] [%] | mortality at 4 mg/m2 [1] [%] | mortality at 20 mg/m2 [7] [%] | mortality at 4 mg/m2 [7] [%] | mortality at 20 mg/m2 [8] [%] | mortality at 4 mg/m2 [8] [%] | mortality at 500 g/ha [5] [%] |
| --- | --- | --- | --- | --- | --- | --- | --- | --- | --- | --- | --- | --- | --- |
| Cc1nc([C@H](C)NC(=O)c2cc(C(F)(F)F)cc(C(F)(F)F)c2)n(-c2ncc(C(=O)N3CCOCC3)s2)n1 [Example I-4] | 80 to 100 | 90 | 100 | 100 | 100 |  |  |  |  |  |  |  |  |
| COC1CCCN(C(=O)c2ccc(-n3ncnc3[C@H](C)NC(=O)c3cc(C(F)(F)F)cc(C(F)(F)F)c3)nc2)C1 (some centres unmarked) [Example I-8] | 80 to 100 | 90 | 100 | 100 |  | 90 | 80 |  |  |  |  |  |  |
| COC1CN(C(=O)c2ccc(-n3ncnc3[C@H](C)NC(=O)c3cc(C(F)(F)F)cc(C(F)(F)F)c3)nc2)C1 [Example I-15] | 80 to 100 | 90 | 100 | 100 | 80 |  | 100 |  |  |  |  |  |  |
| Cc1nc([C@H](C)NC(=O)c2cc(Cl)cc(C(F)(F)F)c2)n(-c2ccc(C(=O)N3CC(C)OC(C)C3)cn2)n1 (some centres unmarked) [Example I-29] | 80 to 100 | 90 | 100 | 100 | 100 |  |  | 80 to 100 |  |  |  |  |  |
| C[C@@H]1CN(C(=O)c2ccc(-n3ncnc3[C@H](C)NC(=O)c3cc(Cl)cc(C(F)(F)F)c3)nc2)C[C@H](C)O1 [Example I-31] | 80 to 100 | 100 | 100 | 100 | 100 |  |  | 80 to 100 |  |  |  |  |  |
| C[C@H](NC(=O)c1cc(Cl)cc(C(F)(F)F)c1)c1ncnn1-c1ccc(C(=O)N2CCS(=O)(=O)CC2)cn1 [Example I-35] | 80 to 100 | 90 | 100 | 100 | 100 | 100 |  | 80 to 100 | 80 to 100 |  |  |  |  |
| C[C@H](NC(=O)c1cc(Cl)cc(C(F)(F)F)c1)c1ncnn1-c1ccc(C(=O)N2CCSCC2)cn1 [Example I-36] | 80 to 100 | 100 | 100 | 100 | 80 | 100 |  | 80 to 100 | 80 to 100 | 80 to 100 |  |  |  |
| Cc1nc([C@H](C)NC(=O)c2cc(C(F)(F)F)cc(C(F)(F)F)c2)n(-c2ccc(C(=O)N3C[C@@H](C)O[C@@H](C)C3)cn2)n1 [Example I-45] | 80 to 100 | 100 | 100 | 100 | 100 |  | 80 |  |  |  |  |  |  |
| C[C@@H]1CN(C(=O)c2ccc(-n3ncnc3[C@H](C)NC(=O)c3cc(C(F)(F)F)cc(C(F)(F)F)c3)nc2)C[C@@H](C)O1 [Example I-46] | 80 to 100 | 90 | 100 | 100 | 100 |  | 100 |  |  |  |  |  |  |
| C[C@@H]1CN(C(=O)c2ccc(-n3ncnc3[C@H](C)NC(=O)c3cc(C(F)(F)F)cc(C(F)(F)F)c3)nc2)CCO1 [Example I-69] | 80 to 100 | 90 | 100 | 100 | 100 |  |  |  | 80 to 100 | 80 to 100 | 80 to 100 |  |  |
| C[C@H](NC(=O)c1cc(C(F)(F)F)cc(C(F)(F)F)c1)c1ncnn1-c1ccc(C(=O)N2CCS(=O)(=O)CC2)cn1 [Example I-75] | 80 to 100 | 100 | 100 | 100 | 100 |  |  | 80 to 100 | 80 to 100 | 80 to 100 | 80 to 100 | 80 to 100 | 100 |
| Cc1nc([C@H](C)NC(=O)c2cc(C(F)(F)F)cc(C(F)(F)F)c2)n(-c2ccc(C(=O)N3CCS(=O)(=O)CC3)cn2)n1 [Example I-76] | 80 to 100 | 90 | 100 | 100 |  |  |  | 80 to 100 | 80 to 100 | 80 to 100 | 80 to 100 | 80 to 100 | 100 |
| C[C@H](NC(=O)c1cc(C(F)(F)F)cc(C(F)(F)F)c1)c1ncnn1-c1ccc(C(=O)N2C[C@H](C)O[C@@H](C)C2)cn1 [Example I-94] | 80 to 100 | 100 | 100 | 100 | 100 | 90 | 100 | 80 to 100 |  |  |  |  |  |
| C[C@@H]1CN(C(=O)c2ccc(-n3ncnc3[C@H](C)NC(=O)c3cc(OC(F)(F)F)cc(C4CC4)c3)nc2)C[C@H](C)O1 [Example I-114] | 80 to 100 | 100 | 100 | 100 | 100 |  | 100 |  |  |  |  |  |  |
